Columns and labels:
Experiment in all cases: MIC, broth microdilution (CLSI), substance alone or ATB combined with compound at 4 or 8 μg/mL
ECO 190317 = format: cell-based, E. coli; details: ECO 190317
Summary of the method: (§1)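 Antibiotic MICs were determined in presence of fixed compound at 4 or 8 μg/mL, and compound MICs alone, by visual growth inhibition. Inoculum 5·10^5 CFU/mL in ca-MHB, incubated 35 °C for 16-20 h per CLSI-M7-A7. Glucose-6-phosphate (25 μg/ml) added when fosfomycin was tested.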

ECO UFR39 = format: cell-based, E. coli; details: ECO UFR39
Summary of the method: as §1

KPN 6299 = format: cell-based, K. pneumoniae
Summary of the method: as §1

KPN BAA-1898 = format: cell-based, K. pneumoniae; details: KPN BAA-1898
Summary of the method: as §1

KPN UFR42 = format: cell-based, K. pneumoniae; details: KPN UFR42
Summary of the method: as §1

ECL P99 = format: cell-based, E. cloacae; details: ECL P99
Summary of the method: as §1

[1] = Escherichia coli, antibiotic alone, read-out: MIC ATB alone
[2] = Klebsiella pneumoniae, antibiotic alone, read-out: MIC ATB alone

SMILES: NCC[C@H](O)C(=O)N[C@@H]1C[C@H](N)[C@@H](O[C@H]2O[C@H](CN)[C@@H](O)[C@H](O)[C@H]2O)[C@H](O)[C@H]1O[C@H]1O[C@H](CO)[C@@H](O)[C@H](N)[C@H]1O [AN, Amikacin, reference compound]
- MIC ATB combined with Example 1 @8 μg/ml (ECO 190317; with Example 1 @8 μg/ml): <0.031 µg/mL
- MIC ATB combined with Example 1 @8 μg/ml (ECO 190317; with Example 1 at 8 μg/ml): <0.031 µg/mL
- MIC ATB combined with Example 7 @8 μgml (ECO 190317; with Example 7 at 8 μg/ml): <0.031 µg/mL
- MIC ATB combined with Example 9 @4 μg/ml (ECO 190317; with Example 9 @4 μg/ml): <0.031 µg/mL
- MIC ATB combined with Example 9 @4 μg/ml (ECO 190317; with Example 9 at 4 μg/ml): <0.031 µg/mL
- MIC ATB combined with Example 11 @8 μg/ml (ECO 190317; with Example 11 at 8 μg/ml): <0.031 µg/mL
- MIC ATB combined with Example 12 @8 μg/ml (ECO 190317; with Example 12 at 8 μg/ml): <0.031 µg/mL
- MIC ATB combined with Example 13 @8 μg/ml (ECO 190317; with Example 13 at 8 μg/ml): <0.031 µg/mL
- MIC ATB combined with Example 14 @8 μg/ml (ECO 190317; with Example 14 at 8 μg/ml): <0.031 µg/mL
- MIC ATB combined with Example 15 @4 μgml (ECO 190317; with Example 15 at 4 μg/ml): <0.031 µg/mL
- MIC ATB combined with Example 16 @4 μg/ml (ECO 190317; with Example 16 at 4 μg/ml): <0.031 µg/mL
- MIC (ECO 190317; [1]): 8 µg/mL
- MIC ATB combined with Example 1 @8 μg/ml (ECO UFR39; with Example 1 @8 μg/ml): <=0.031 μg/mL
- MIC ATB combined with Example 1 @8 μg/ml (ECO UFR39; with Example 1 at 8 μg/ml): <=0.031 μg/mL
- MIC ATB combined with Example 7 @8 μgml (ECO UFR39; with Example 7 at 8 μg/ml): <0.031 µg/mL
- MIC ATB combined with Example 9 @4 μg/ml (ECO UFR39; with Example 9 @4 μg/ml): <0.031 µg/mL
- MIC ATB combined with Example 9 @4 μg/ml (ECO UFR39; with Example 9 at 4 μg/ml): <0.031 µg/mL
- MIC ATB combined with Example 11 @8 μg/ml (ECO UFR39; with Example 11 at 8 μg/ml): <0.031 µg/mL
- MIC ATB combined with Example 12 @8 μg/ml (ECO UFR39; with Example 12 at 8 μg/ml): <0.031 µg/mL
- MIC ATB combined with Example 13 @8 μg/ml (ECO UFR39; with Example 13 at 8 μg/ml): 0.063 µg/mL
- MIC ATB combined with Example 14 @8 μg/ml (ECO UFR39; with Example 14 at 8 μg/ml): <0.031 µg/mL
- MIC ATB combined with Example 15 @4 μgml (ECO UFR39; with Example 15 at 4 μg/ml): <0.031 µg/mL
- MIC ATB combined with Example 16 @4 μg/ml (ECO UFR39; with Example 16 at 4 μg/ml): <0.031 µg/mL
- MIC (ECO UFR39; [1]): > 32 µg/mL
- MIC (KPN 6299; [2]): 16 µg/mL
- MIC ATB combined with Example 1 @8 μg/ml (KPN 6299; with Example 1 @8 μg/ml): 16 µg/mL
- MIC ATB combined with Example 1 @8 μg/ml (KPN 6299; with Example 1 at 8 μg/ml): 16 µg/mL
- MIC ATB combined with Example 7 @8 μgml (KPN 6299; with Example 7 at 8 μg/ml): 2 µg/mL
- MIC ATB combined with Example 9 @4 μg/ml (KPN 6299; with Example 9 @4 μg/ml): <0.031 µg/mL
- MIC ATB combined with Example 9 @4 μg/ml (KPN 6299; with Example 9 at 4 μg/ml): <0.031 µg/mL
- MIC ATB combined with Example 11 @8 μg/ml (KPN 6299; with Example 11 at 8 μg/ml): <0.031 µg/mL
- MIC ATB combined with Example 12 @8 μg/ml (KPN 6299; with Example 12 at 8 μg/ml): <0.031 µg/mL
- MIC ATB combined with Example 13 @8 μg/ml (KPN 6299; with Example 13 at 8 μg/ml): 4 µg/mL
- MIC ATB combined with Example 14 @8 μg/ml (KPN 6299; with Example 14 at 8 μg/ml): <0.031 µg/mL
- MIC ATB combined with Example 15 @4 μgml (KPN 6299; with Example 15 at 4 μg/ml): <=0.031 μg/mL
- MIC ATB combined with Example 16 @4 μg/ml (KPN 6299; with Example 16 at 4 μg/ml): <0.031 µg/mL
- MIC ATB combined with Example 1 @8 μg/ml (KPN BAA-1898; with Example 1 @8 μg/ml): 0.25 µg/mL
- MIC ATB combined with Example 1 @8 μg/ml (KPN BAA-1898; with Example 1 at 8 μg/ml): 0.25 µg/mL
- MIC ATB combined with Example 7 @8 μgml (KPN BAA-1898; with Example 7 at 8 μg/ml): 0.125 µg/mL
- MIC ATB combined with Example 9 @4 μg/ml (KPN BAA-1898; with Example 9 @4 μg/ml): <0.031 µg/mL
- MIC ATB combined with Example 9 @4 μg/ml (KPN BAA-1898; with Example 9 at 4 μg/ml): <0.031 µg/mL
- MIC ATB combined with Example 11 @8 μg/ml (KPN BAA-1898; with Example 11 at 8 μg/ml): <0.031 µg/mL
- MIC ATB combined with Example 12 @8 μg/ml (KPN BAA-1898; with Example 12 at 8 μg/ml): <0.031 µg/mL
- MIC ATB combined with Example 13 @8 μg/ml (KPN BAA-1898; with Example 13 at 8 μg/ml): 0.25 µg/mL
- MIC ATB combined with Example 14 @8 μg/ml (KPN BAA-1898; with Example 14 at 8 μg/ml): <0.031 µg/mL
- MIC ATB combined with Example 15 @4 μgml (KPN BAA-1898; with Example 15 at 4 μg/ml): <=0.031 μg/mL
- MIC ATB combined with Example 16 @4 μg/ml (KPN BAA-1898; with Example 16 at 4 μg/ml): <0.031 µg/mL
- MIC (KPN BAA-1898; Klebsiella pneumoniae, BAA1898, antibiotic alone, read-out: MIC ATB alone): 1 µg/mL
- MIC ATB combined with Example 1 @8 μg/ml (KPN UFR42; with Example 1 @8 μg/ml): >32 µg/mL
- MIC ATB combined with Example 1 @8 μg/ml (KPN UFR42; with Example 1 at 8 μg/ml): >32 µg/mL
- MIC ATB combined with Example 7 @8 μgml (KPN UFR42; with Example 7 at 8 μg/ml): >32 µg/mL
- MIC ATB combined with Example 9 @4 μg/ml (KPN UFR42; with Example 9 @4 μg/ml): >32 µg/mL
- MIC ATB combined with Example 9 @4 μg/ml (KPN UFR42; with Example 9 at 4 μg/ml): >32 µg/mL
- MIC ATB combined with Example 11 @8 μg/ml (KPN UFR42; with Example 11 at 8 μg/ml): 0.25 µg/mL
- MIC ATB combined with Example 12 @8 μg/ml (KPN UFR42; with Example 12 at 8 μg/ml): <0.031 µg/mL
- MIC ATB combined with Example 13 @8 μg/ml (KPN UFR42; with Example 13 at 8 μg/ml): >32 µg/mL
- MIC ATB combined with Example 14 @8 μg/ml (KPN UFR42; with Example 14 at 8 μg/ml): <0.031 µg/mL
- MIC ATB combined with Example 15 @4 μgml (KPN UFR42; with Example 15 at 4 μg/ml): >32 µg/mL
- MIC ATB combined with Example 16 @4 μg/ml (KPN UFR42; with Example 16 at 4 μg/ml): <0.031 µg/mL
- MIC (KPN UFR42; [2]): > 32 µg/mL
- MIC ATB combined with Example 1 @8 μg/ml (ECL P99; with Example 1 @8 μg/ml): <0.031 µg/mL
- MIC ATB combined with Example 1 @8 μg/ml (ECL P99; with Example 1 at 8 μg/ml): <0.031 µg/mL
- MIC ATB combined with Example 7 @8 μgml (ECL P99; with Example 7 at 8 μg/ml): 0.063 µg/mL
- MIC ATB combined with Example 9 @4 μg/ml (ECL P99; with Example 9 @4 μg/ml): <0.031 µg/mL
- MIC ATB combined with Example 9 @4 μg/ml (ECL P99; with Example 9 at 4 μg/ml): <0.031 µg/mL
- MIC ATB combined with Example 11 @8 μg/ml (ECL P99; with Example 11 at 8 μg/ml): <0.031 µg/mL
- MIC ATB combined with Example 12 @8 μg/ml (ECL P99; with Example 12 at 8 μg/ml): <0.031 µg/mL

Source: patent US20200024278A1, “COMPOSITION COMPRISING ANTIBIOTIC COMPOUND AND AN HETEROCYCLIC COMPOUND AND THEIR USE IN PREVENTING OR TREATING BACTERIAL INFECTIONS” (MUTABILIS, priority 2016, published 2020)
